This is an account of results in patent publication US11325899B2, “Benzofurane and benzothiophene derivatives as PGE2 receptor modulators” (IDORSIA PHARMACEUTICALS LTD, priority 2017, dated 2022).

Holding throughout (format): cell-based
In one experiment the target is T1, EP4 receptor (Homo sapiens, UniProt P35408).
T1 construct: BT549 breast cancer cells, express high endogenous EP4 levels and very low EP2 levels; host or cells: BT549 breast cancer cells
As to the kind of experiment: hEP4 cAMP assay (BT549 breast cancer cells, HTRF cAMP, PGE2 stimulation). The following applies: antagonistic activity, PGE2 6 nM (EC80). The procedure: (§1) The antagonistic activities of the compounds of formula (I) on the EP2 and EP4 receptors are also determined in accordance with the following experimental method.
(§2) Human tumor cell lines expressing endogenously either EP4 or EP2 are used and cAMP accumulation in cells upon PGE2 stimulation is monitored. SF295 glioblastoma cells express high endogenous EP2 and no EP4, whereas BT549 breast cancer cells, express high endogenous EP4 levels and very low EP2 levels.
(§3) As a detection method for cAMP the HTRF (homogeneous time resolved fluorescence) Cisbio kit (HTRF cAMP dynamic 2 kit 20′000 tests Cisbio Cat. #62AM4PEC) was used, which is based on a competitive immunoassay using a Cryptate-labeled anti-cAMP antibody and d2-labeled cAMP. Native cAMP produced by cells or unlabeled cAMP (for the standard curve) compete with exogenously added d2-labeled cAMP (acceptor) for binding to monoclonal anti-cAMP-Eu3+ Cryptate (donor). A FRET signal (Fluorescence Resonance Energy Transfer) is obtained only if the labeled anti-cAMP antibody binds the d2 labelled cAMP, thus the specific signal (i.e. energy transfer) is inversely proportional to the concentration of cAMP in the standard or sample.
The BT549 cells (NCI/No. 0507282) are detached from culture dishes with a cell dissociation buffer (Invitrogen, 13151-014), and collected in growing medium (GM: RPMI1640 (Invitrogen 21875)/10% FCS, 1% Penicilin/streptomycin). Cells are counted washed and resuspended in assay buffer (AB; HBSS, 20 mM HEPES, 0.2% BSA; 2 mM IBMX). 4′000 cells in 5 μl of AB are seeded per well of a small volume 384 well plate (black with flat bottom, Greiner 784076).
Stock solutions of test compounds are made at a concentration of 10 mM in DMSO, and serially diluted in DMSO to concentrations required for inhibition dose response curves (tested concentration range 30 μM-0.4 nM; 30 μM-0.015 nM or 1 uM-0.01 nM).
PGE2 (Cayman 14010, stock solution: 6 μM in DMSO) is used as agonist at 6 nM final concentration, corresponding to EC80.
Two point five microliters of diluted compounds are transferred into the assay plate. Plate is pre-incubated 45 minutes at room temperature. Subsequently, 2.5 microliters of PGE2 (final conc. 6 nM) are transferred into the assay plate. Plate is incubated 30 minutes at room temperature. Five μl of each donor (anti-cAMP cryptate) and acceptor (cAMP-d2) are added and the plate is incubated another hour at room temperature in the dark and then read using a BMG LABTECH PHERAstar reader (Excitation:337 nm, Emission:620 and 665 nm).
The obtained Delta F(fluorescence) values (665 nm/620 nM) are converted into % cAMP values using the measurements of the cAMP calibrator provided in the kit. For each compound concentration the percentage of cAMP compared to DMSO control value as average±STDEV (each concentration is measured in duplicate) is calculated.
(§4) IC50 values and curves are generated with XLfit software (IDBS) using Dose-Response One Site model 203. When compounds were measured multiple times, mean values are given.

Another experiment deals with T2, PTGER4 (EP4) (Homo sapiens, UniProt P35408).
T2 construct: host or cells: HEK 293 (PathHunter PTGER4 b-arrestin cell line)
T2 sequence (P35408 whole entry): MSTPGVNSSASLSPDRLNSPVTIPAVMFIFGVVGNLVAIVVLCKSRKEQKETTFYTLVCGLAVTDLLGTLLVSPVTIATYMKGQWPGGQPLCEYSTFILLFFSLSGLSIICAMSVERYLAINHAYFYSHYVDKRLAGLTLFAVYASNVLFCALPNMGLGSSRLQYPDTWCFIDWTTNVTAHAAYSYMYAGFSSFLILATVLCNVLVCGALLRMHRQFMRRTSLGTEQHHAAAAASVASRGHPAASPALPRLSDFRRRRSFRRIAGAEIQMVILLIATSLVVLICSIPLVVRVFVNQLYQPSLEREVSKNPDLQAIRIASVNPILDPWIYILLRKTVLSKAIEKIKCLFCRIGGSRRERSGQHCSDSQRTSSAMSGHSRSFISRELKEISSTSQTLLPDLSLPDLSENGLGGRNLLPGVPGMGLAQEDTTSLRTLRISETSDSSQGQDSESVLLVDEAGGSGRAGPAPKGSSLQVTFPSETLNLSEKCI
As to the kind of experiment: hEP4 b-arrestin assay (PathHunter HEK 293 PTGER4 b-arrestin cells). The following applies: antagonistic activity, beta-arrestin assay; read-out: hEP4 b-arr IC50. The method, boiled down:
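β-Arrestin recruitment to EP4 was read as enzyme-fragment-complementation chemiluminescence in stably transfected HEK 293 cells. After 15 min compound preincubation at 37 °C (ranges 10 μM–2 nM or 1 μM–0.2 nM), cells were stimulated 120 min with PGE2 at 20 nM, its EC80. IC50 values were fitted from duplicates, with repeat measurements averaged.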

For another experiment, the target named is T3, PTGER2 (EP2) (Homo sapiens, UniProt P43116).
T3 construct: host or cells: HEK 293 (PathHunter PTGER2 b-arrestin cell line)
T3 sequence (P43116 whole entry): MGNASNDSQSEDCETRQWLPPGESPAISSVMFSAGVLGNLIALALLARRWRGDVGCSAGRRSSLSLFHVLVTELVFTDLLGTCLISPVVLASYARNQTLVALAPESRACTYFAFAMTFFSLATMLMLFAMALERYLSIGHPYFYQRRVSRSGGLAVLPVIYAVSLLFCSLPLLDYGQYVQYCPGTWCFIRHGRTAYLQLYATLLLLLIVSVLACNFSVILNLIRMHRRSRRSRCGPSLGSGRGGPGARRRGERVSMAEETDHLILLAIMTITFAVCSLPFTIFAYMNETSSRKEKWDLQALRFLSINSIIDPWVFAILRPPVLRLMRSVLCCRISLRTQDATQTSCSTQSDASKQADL
As to the kind of experiment: hEP2 b-arrestin assay (PathHunter HEK 293 PTGER2 b-arrestin cells). The following applies: antagonistic activity, beta-arrestin assay; read-out: hEP2 b-arr IC50. In outline:
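Antagonism measured as inhibition of PGE2-driven β-arrestin 2 recruitment (enzyme fragment complementation, luminescence) in engineered HEK293 EP2 cells. Agonist: 5 μM PGE2, ~EC80, 120 min at 37 °C after 15 min compound preincubation; test range 10 μM-2 nM or 1 μM-0.2 nM, duplicates, IC50 fitted.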

A further experiment has as its target T4, EP2 receptor (Homo sapiens, UniProt P43116).
T4 construct: SF295 glioblastoma cells express high endogenous EP2 and no EP4; host or cells: SF295 glioblastoma cells
As to the kind of experiment: hEP2 cAMP assay (SF295 glioblastoma cells, HTRF cAMP, PGE2 stimulation). The following applies: antagonistic activity. The method, then: as §1, §2, §3
The SF295 cells (NCI/No. 0503170) are detached from culture dishes with a cell dissociation buffer (Invitrogen, 13151-014), and collected in growing medium (GM: RPM1640 (Invitrogen 21875)/10% FCS, 1% Penicilin/streptomycin). Cells are counted washed and resuspended in assay buffer (AB; HBSS, 20 mM HEPES, 0.2% BSA; 2 mM IBMX). 4′000 cells in 5 μl of AB are seeded per well of a small volume 384 well plate (black with flat bottom, Greiner 784076).
Stock solutions of test compounds are made at a concentration of 10 mM in DMSO, and serially diluted in DMSO to concentrations required for inhibition dose response curves (tested concentration range 30 μM-0.4 nM; 30 μM-0.015 nM or 1 μM-0.01 nM).
PGE2 (Cayman 14010, stock solution: 75 μM in DMSO) is used as agonist at 75 nM final concentration, corresponding to EC80.
Two point five microliters of diluted compounds are transferred into the assay plate. Plate is pre-incubated 45 minutes at room temperature. Subsequently, 2.5 microliters of PGE2 (final conc. 75 nM) are transferred into the assay plate. Plate is incubated 30 minutes at room temperature. Five μl of each donor (anti-cAMP cryptate) and acceptor (cAMP-d2) are added and the plate is incubated another hour at room temperature in the dark and then read using a BMG LABTECH PHERAstar reader (Excitation: 337 nm, Emission: 620 and 665 nm).
The obtained Delta F (fluorescence) values (665 nm/620 nM) are converted into % cAMP values using the measurements of the cAMP calibrator provided in the kit. For each compound concentration the percentage of cAMP compared to DMSO control value as average±STDEV (each concentration is measured in duplicate) is calculated.
as §4

Molecules are shown by their SMILES.

T4 sequence (P43116 whole entry): as above
T1 sequence (P35408 whole entry): as the sequence (P35408 whole entry) above

For the compound `COc1cc(Cl)cc2c(CCNc3cc(-c4cc(C)c(C(=O)O)s4)ncn3)c(C)oc12` [Example 1, 5-{6-[2-(5-Chloro-7-methoxy-2-methyl-benzofuran-3-yl)-ethylamino]-pyrimidin-4-yl}-3-methyl-thiophene-2-carboxylic acid], the 50% inhibitory concentration (IC50) (as a rule, the concentration that inhibits the measured activity by half) at EP4 receptor is 0.022 µM; on PTGER4 (EP4), 0.142 µM; at PTGER2 (EP2) it was 0.059 µM.
As to `Cc1sc2c(Cl)ccc(Cl)c2c1CCNc1cc(-c2ccc(C(=O)O)c(O)c2)ncn1` [Example 11, 4-{6-[2-(4,7-Dichloro-2-methyl-benzo[b]thiophen-3-yl)-ethylamino]-pyrimidin-4-yl}-2-hydroxy-benzoic acid], the IC50 against EP2 receptor stood at 0.071 µM; at PTGER4 (EP4), 3.09 µM; on PTGER2 (EP2), 0.099 µM.
Take `CCOc1cc(-c2cc(NCCc3c(C#N)sc4c(C)cc(F)cc34)ncn2)sc1C(=O)O` [Example 26, 5-{6-[2-(2-Cyano-5-fluoro-7-methyl-benzo[b]thiophen-3-yl)-ethylamino]-pyrimidin-4-yl}-3-ethoxy-thiophene-2-carboxylic acid]: the 50% inhibitory concentration (IC50) on EP2 receptor amounted to 0.001 µM; against EP4 receptor, 0.002 µM.
Take `CCOc1cc(-c2cc(NCCc3c(C#N)sc4c(OC)cccc34)ncn2)sc1C(=O)O` [Example 27, 5-{6-[2-(2-Cyano-7-methoxy-benzo[b]thiophen-3-yl)-ethylamino]-pyrimidin-4-yl}-3-ethoxy-thiophene-2-carboxylic acid]: the 50% inhibitory concentration (IC50) is 0.011 µM against EP2 receptor, 0.004 µM at EP4 receptor and 0.002 µM on PTGER4 (EP4).
`Cc1sc2c(C)cc(F)cc2c1CCNc1cc(-c2cc(OCCO)c(C(=O)O)s2)ncn1` [Example 41, 5-{6-[2-(5-Fluoro-2,7-dimethyl-benzo[b]thiophen-3-yl)-ethylamino]-pyrimidin-4-yl}-3-(2-hydroxy-ethoxy)-thiophene-2-carboxylic acid]: the values for the 50% inhibitory concentration (IC50) against EP2 receptor and against EP4 receptor were 0.013 µM and 0.042 µM, respectively.
On to `CSc1cc(-c2cc(NCCc3c(C)sc4ccccc34)ncn2)cc(F)c1C(=O)O` [Example 48, 2-Fluoro-4-{6-[2-(2-methyl-benzo[b]thiophen-3-yl)-ethylamino]-pyrimidin-4-yl}-6-methylsulfanyl-benzoic acid], for which the IC50 against EP2 receptor was 0.002 µM; on PTGER4 (EP4), 3.38 µM; at PTGER2 (EP2), 0.005 µM.
As for `CSc1cc(-c2cc(NCCc3c(C)oc4ccccc34)ncn2)cc(F)c1C(=O)O` [Example 49, 2-Fluoro-4-{6-[2-(2-methyl-benzofuran-3-yl)-ethylamino]-pyrimidin-4-yl}-6-methylsulfanyl-benzoic acid], the IC50 was 0.001 µM at EP2 receptor, 3.62 µM at PTGER4 (EP4) and 0.002 µM on PTGER2 (EP2).
For the compound `CSc1cc(-c2cc(NCCc3c(C)oc4ccccc34)ncn2)cc(Cl)c1C(=O)O` [Example 51, 2-Chloro-4-{6-[2-(2-methyl-benzofuran-3-yl)-ethylamino]-pyrimidin-4-yl}-6-methylsulfanyl-benzoic acid], the half-inhibitory concentration (IC50) at EP2 receptor came out at 0.001 µM; at PTGER4 (EP4), 3.49 µM; at PTGER2 (EP2) it was 0.01 µM.
With `CCOc1cc(-c2cc(NCCc3c(C)oc4ccccc34)ncn2)ccc1C(=O)O` [Example 73, 2-Ethoxy-4-{6-[2-(2-methyl-benzofuran-3-yl)-ethylamino]-pyrimidin-4-yl}-benzoic acid], the half-maximal inhibitory concentration (IC50) on EP2 receptor turned out to be 0.004 µM; at PTGER4 (EP4) it was 3.5 µM; at PTGER2 (EP2), 0.005 µM.
Consider `COc1cc(-c2cc(NCCc3c(C)sc4c(C)ccc(F)c34)ncn2)cc(C)c1C(=O)O` [Example 74, 4-{6-[2-(4-Fluoro-2,7-dimethyl-benzo[b]thiophen-3-yl)-ethylamino]-pyrimidin-4-yl}-2-methoxy-6-methyl-benzoic acid], for which the IC50 against EP2 receptor is 0.273 µM; at EP4 receptor, 0.644 µM.
Take `Cc1sc2c(C)cccc2c1CCNc1cc(-c2ccc3oc(C(=O)O)cc3c2)ncn1` [Example 78, 5-{6-[2-(2,7-Dimethyl-benzo[b]thiophen-3-yl)-ethylamino]-pyrimidin-4-yl}-benzofuran-2-carboxylic acid]: the IC50 came out at 0.007 µM at EP2 receptor and 0.087 µM at EP4 receptor.
As to `Cc1sc2c(C)cc(F)cc2c1CCNc1cc(-c2ccc(-c3cc(O)no3)cc2)ncn1` [Example 81, 5-(4-{6-[2-(5-Fluoro-2,7-dimethyl-benzo[b]thiophen-3-yl)-ethylamino]-pyrimidin-4-yl}-phenyl)-isoxazol-3-ol [tautomeric form: 5-(4-(6-((2-(5-fluoro-2,7-dimethylbenzo[b]thiophen-3-yl)ethyl)amino)pyrimidin-4-yl)phenyl)isoxazol-3(2H)-one]], the values for the IC50 against EP2 receptor, on EP4 receptor and on PTGER4 (EP4) were 0.392 µM, 0.323 µM and 0.202 µM, respectively.
Regarding `CCOc1cc(-c2cc(NCCc3c(C)sc4c(C)cc(F)cc34)ncn2)sc1CC(=O)OC` [Example 95, (3-Ethoxy-5-{6-[2-(5-fluoro-2,7-dimethyl-benzo[b]thiophen-3-yl)-ethylamino]-pyrimidin-4-yl}-thiophen-2-yl)-acetic acid methyl ester], the values for the IC50 on EP2 receptor, on EP4 receptor and at PTGER4 (EP4) were 0.647 µM, 0.855 µM and 0.484 µM, respectively.
In the case of `CCOc1cc(-c2cc(NCCc3csc4ccccc34)ncn2)ccc1OCC(=O)O` [Example 125, {4-[6-(2-Benzo[b]thiophen-3-yl-ethylamino)-pyrimidin-4-yl]-2-ethoxy-phenoxy}-acetic acid], the half-maximal inhibitory concentration (IC50) on EP2 receptor was 0.359 µM; against EP4 receptor, 0.426 µM.
The corresponding values for `CCOc1cc(-c2cc(NCCc3c(C)sc4c(C)cc(F)cc34)ncn2)ccc1NCC(=O)O` [Example 128, (2-Ethoxy-4-{6-[2-(5-fluoro-2,7-dimethyl-benzo[b]thiophen-3-yl)-ethylamino]-pyrimidin-4-yl}-phenylamino)-acetic acid] are 0.037 µM and 0.082 µM.
